The conditions of series [1]: dose of 200 mg to an adult human; cited from earlier work.
In another series the test system is aged rats. In words: performance of a stabilized delayed alternation task at three retention delays in aged rats. The settings on record: 15, 30 or 60 modafinil. Also noted: dose or concentration left out as unconfirmed. It counts as in vivo, rat. As for the experimental part: In another study, aged rats were tested for performance of a stabilized delayed alternation task at three retention delays. After stabilized performance in training sessions the rats were entered into a drug testing study with […] of modafinil. A trial started with the presentation of a single lever (left or right). […] After the expiration of the delay, the 2 levers were inserted into the chamber and the animal received a food pellet only if it pressed the lever not previously presented (delayed alternation). Incorrect responses (responses on the same lever) were not reinforced. The 3 delays were randomly presented and equally distributed throughout the session. Correct or incorrect responses were followed by retraction of the two levers. […] The test results indicated the response accuracy of the animal after each retention delay, the simple reaction time in the one lever presentation, and the choice reaction time in the two lever presentation. […] Therefore, modafinil had no effect on improving short term memory at these doses.

The test system of the next series is aged male Wistar rats. The note with it: rat, in vivo.
The subject of the next series is adult humans. In words: wakefulness promoting dose extrapolated to adult humans. The settings on record: extrapolation in adult humans. Format: in vivo, human. As for the experimental part: The dosage levels in rats in the studies described herein are reported in mg/kg administered by intraperitoneal injection (i.p.). As described in previous publications, the wakefulness promoting dose of modafinil in rats is highly significant at doses of 100 to 300 mg/kg i.p. (Edgar and Seidel, The Journal of Pharmacology and Experimental Therapeutics, vol. 283, pp 757-769, 1997). The extrapolation in adult humans is a wakefulness promoting dose of 200 mg/day. A dose of 200 mg to an adult human would result in a serum level of about 6.4 μg/ml. […] An effective dose, therefore, is a dose given as a single unit per day in a sustained release formula or given periodically would be that dose that maintains a serum level of from about 0.05 to about 2 μg/ml.

The structures appear in SMILES notation. Entries after “also recorded” stand apart in the source; their conditions may differ.

For `NC(=O)C[S+]([O-])C(c1ccccc1)c1ccccc1` (centres unmarked) [Modafinil, 2-(benzhydrylsulfinyl) acetamide], in series [1], the serum level entry was “about 6.4 μg/ml”. In addition, the “effect on improving short term memory” value in the series on aged rats was “no effect”. Moreover, the “number of correct responses at any retention delay” value with aged rats (retention delays 5, 10 or 20 seconds) is given as “did not significantly affect”. Besides, in the series with aged male Wistar rats, the choice reaction times result is recorded as “significantly decreased”, the “general ability of animals to perform the task” value is on record as “failed to improve”, the “number of correct responses” value was “No effects” and the “number of correct responses (response accuracy)” value was “significantly increased”. Besides, in the series with aged male Wistar rats, the “number of response omissions” value was “significantly increased” and the simple reaction times result is “No clear effects; also recorded: tended to increase”. The “cognitive function in aged rats” value with aged male Wistar rats (60 mg/kg) is “restored cognitive function in the aged rats to the level of the young control rats”. Further, the wakefulness promoting dose with adult humans was 200 mg/day.

Values taken from patent US20010034373A1, “Low dose modafinil for enhancement of cognitive function” (priority 2000, published 2001).
